Experimental data published in PMC10884080, “A progesterone derivative linked to a stable phospholipid activates breast cancer cell response without leaving the cell membrane” (Cellular and Molecular Life Sciences: CMLS, 2024).

Target: T1, progesterone receptor (PR, PRb) (Homo sapiens, UniProt P06401)
T1 construct: gene PGR; wild type PRb expressed in PR-negative U2OS or TYML cells
T1 sequence (P06401 1-933): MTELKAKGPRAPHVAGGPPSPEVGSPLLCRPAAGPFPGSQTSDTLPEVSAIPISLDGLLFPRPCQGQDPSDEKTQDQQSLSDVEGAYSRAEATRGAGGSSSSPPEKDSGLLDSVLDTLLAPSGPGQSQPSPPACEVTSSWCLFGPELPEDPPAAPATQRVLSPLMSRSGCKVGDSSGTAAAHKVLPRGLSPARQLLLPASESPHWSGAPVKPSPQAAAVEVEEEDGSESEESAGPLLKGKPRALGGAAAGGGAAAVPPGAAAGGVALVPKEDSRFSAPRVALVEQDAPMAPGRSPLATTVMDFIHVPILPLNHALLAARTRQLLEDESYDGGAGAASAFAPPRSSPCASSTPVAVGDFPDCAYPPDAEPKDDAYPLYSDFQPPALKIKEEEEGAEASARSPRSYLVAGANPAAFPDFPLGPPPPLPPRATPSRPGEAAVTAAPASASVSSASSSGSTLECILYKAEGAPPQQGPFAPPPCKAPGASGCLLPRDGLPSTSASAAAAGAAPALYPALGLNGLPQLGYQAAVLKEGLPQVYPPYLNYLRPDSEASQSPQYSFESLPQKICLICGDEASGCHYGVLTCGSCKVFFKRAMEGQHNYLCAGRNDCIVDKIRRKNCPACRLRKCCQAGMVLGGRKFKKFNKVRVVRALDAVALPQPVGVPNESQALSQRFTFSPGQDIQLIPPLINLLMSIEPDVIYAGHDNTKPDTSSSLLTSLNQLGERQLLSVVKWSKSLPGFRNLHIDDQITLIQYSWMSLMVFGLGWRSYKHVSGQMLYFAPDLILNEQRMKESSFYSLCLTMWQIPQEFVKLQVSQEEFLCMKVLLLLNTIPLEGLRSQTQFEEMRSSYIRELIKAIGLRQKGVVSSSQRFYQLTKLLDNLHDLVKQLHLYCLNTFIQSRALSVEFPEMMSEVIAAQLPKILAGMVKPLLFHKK
Test: PR S294 phosphorylation and MMTV-luc/target gene induction by […] P4 in PR-negative cells transfected with wild type PRb
Assay type: cell-based

Structure (SMILES): CC(=O)[C@H]1CC[C@H]2[C@@H]3CCC4=CC(=O)CC[C@]4(C)[C@H]3CC[C@]12C [P4, progesterone]
- PR S294 phosphorylation and MMTV-luc/target gene induction by 10 nM P4 in PR-neg: only the wtPR-expressing cells activated the ERK kinase and led to PR phosphorylation
